Measurements reported in article PMC7010297, “How the initiating ribosome copes with ppGpp to translate mRNAs” (PLoS Biology, 2020).
Several values for one entry are separate records, joined by “and”; a condition that tells them apart may be missing. Equal values may be shown once.

Columns and labels:
[1] = target: T1, 30S IC (30S-bound IF2, Bpy-tRNAi) (Escherichia coli, UniProt P0A705); test: 30S IC formation measured by MST at increasing concentrations of IF2 with guanosine nucleotides; format: binding; conditions: Fig 2A
T1 construct: 6xHis (N); made in house
Text: To monitor the interaction of initiator tRNA and 30S ribosomal subunits, we used Microscale Thermophoresis (MST) with a fluorescently labelled initiator tRNA (Bpy-tRNAi) (Fig 1B). MST allows to measure fluorescence in a constrained space. Changes on the readout derive from molecular drifts resulting from small thermal equilibrium perturbations. Upon equilibrium perturbations, the patterns of Bpy-tRNAi migration away from the observation space are related to bound and unbound states (Fig 1B). […] On the contrary, a decrease in thermophoresis indicated the dissociation of Bpy-tRNAi. The relation between fluorescence measured at both equilibriums (Ff to Fi, after and prior to the perturbation, respectively) as a function of ligand concentration allowed to determine dissociation constants of the interaction (Fig 1C).
(§1) Continuous lines indicate nonlinear regression fittings with a quadratic equation. Three measurements were performed; mean and standard deviation are plotted (S1 Data). (B) as (A) to measure the concentration dependence for each tested guanosine nucleotide at constant IF2 (1 μM). […] Continuous lines show best fits using exponential functions. (D) Formation of 70S IC as measured by Bpy-tRNAi accommodation in the P site of the ribosome; 0.1 μM 30S ICs were formed with Bpy-tRNAi and rapidly mixed with 0.3 μM 50S subunits on a stopped-flow apparatus as described in [14]. Colors are as in (C). Continuous lines show best fits using an exponential function for a single reaction step. Each stopped-flow trace results from the mean of 5 to 7 replicates.

70S IC = target: T2, 70S IC (Escherichia coli, UniProt P0A705); test: 70S IC formation by Bpy-tRNAi accommodation, stopped-flow; format: biochemical; set-up: K1, best-fit value: unit not given here; conditions: for A0, best-fit value / A1, best-fit value / K1, best-fit value / k2, best-fit value: fit Y=A0+A1*exp(-K1*x)+k2*x; for kfast (s-1) Avg: fluorescence
T2 construct: 6xHis (N); made in house
Experimental: as §1
(§2) (A) Scheme of 70S IC formation. […] Time traces were analyzed by nonlinear regression with exponential terms. […] Formation of 70S IC, as measured by Bpy-tRNAi accommodation in the absence (F) or presence of 200 μM ppGpp (G). Time traces were analyzed by nonlinear regression with one exponential term. […] Continuous lines show best fits using an exponential function for a single reaction step. All time traces are mean values of 5 to 10 replicates. Bar graphs show mean and standard errors (error bars) derived from the nonlinear regression fitting (D,E,H,I) (S1 Data).
(§3) To measure 70S pre-IC formation, a SX-20 stopped-flow instrument (Applied Photophysics, Leatherhead, UK) was set up for LS recording with an excitation wavelength of 430 nm. Scattered light was measured at an angle of 90° without a filter. Pseudo first-order conditions were approximated by using ≥3-fold excess of 50S subunits over 30S ICs; 0.2 μM 30S ICs were rapidly mixed in the instrument with 0.6 μM 50S at 25 °C. Bpy-tRNAi accommodation was measured essentially as described elsewhere. Briefly, 0.2 μM 30S ICs were formed using Bpy-tRNAi and rapidly mixed with 0.6 μM 50S at 25 °C. Fluorescence was excited at 470 nm and measured after a 495-nm longpass filter. Individual traces (6–11 traces) were averaged, and the resulting kinetic curve was approximated by single (F = A0 + A1*exp (-kapp1*t)) or double (F = A0 + A1*exp (-kapp1*t) + A2*exp (-kapp2*t)) exponential fit using Graphpad Prism 6.0 software (GraphPad, San Diego, California).

[2] = target: T3, 70S pre-IC (50S joining to 30S IC) (Escherichia coli, UniProt P0A705); test: 70S pre-IC formation by light scattering, stopped-flow; format: biochemical; set-up: K1, best-fit value / k2, best-fit value: unit not given here; conditions: for kfast (s-1) Avg: light scattering
T3 construct: 6xHis (N); made in house
Experimental: as §1, §2, §3

30S-bound IF2 (30S IC) = target: T4, 30S-bound IF2 (30S IC) (Escherichia coli, UniProt P0A705); test: ppGpp (or GDP) to GTP competitive assay for 30S IC formation by MST; format: binding; conditions: S4G Fig
T4 construct: 6xHis (N); made in house
Experimental: MST was calculated from the respective fluorescence time dependencies (S3 Fig). […] Symbols as in (B). […] Continuous lines indicate nonlinear regression fittings with quadratic (B and E) or same-site competition (G) functions. Three measurements were performed; mean and standard deviations are plotted (S1 Data).
[…] Symbols are as indicated, 3 measurements were performed, and mean and standard deviation are plotted (S1 Data). Continuous lines show nonlinear regression fittings with a same-site inhibition model. […] (PDF) Click here for additional data file.

[3] = mInfA, fit Y=A0+A1*exp(-K1*x)+k2*x
[4] = mMF1, fit Y=A0+A1*exp(-K1*x)+k2*x
[5] = mTufA, fit Y=A0+A1*exp(-K1*x)+k2*x

T3 sequence (P0A705 whole entry, looked up): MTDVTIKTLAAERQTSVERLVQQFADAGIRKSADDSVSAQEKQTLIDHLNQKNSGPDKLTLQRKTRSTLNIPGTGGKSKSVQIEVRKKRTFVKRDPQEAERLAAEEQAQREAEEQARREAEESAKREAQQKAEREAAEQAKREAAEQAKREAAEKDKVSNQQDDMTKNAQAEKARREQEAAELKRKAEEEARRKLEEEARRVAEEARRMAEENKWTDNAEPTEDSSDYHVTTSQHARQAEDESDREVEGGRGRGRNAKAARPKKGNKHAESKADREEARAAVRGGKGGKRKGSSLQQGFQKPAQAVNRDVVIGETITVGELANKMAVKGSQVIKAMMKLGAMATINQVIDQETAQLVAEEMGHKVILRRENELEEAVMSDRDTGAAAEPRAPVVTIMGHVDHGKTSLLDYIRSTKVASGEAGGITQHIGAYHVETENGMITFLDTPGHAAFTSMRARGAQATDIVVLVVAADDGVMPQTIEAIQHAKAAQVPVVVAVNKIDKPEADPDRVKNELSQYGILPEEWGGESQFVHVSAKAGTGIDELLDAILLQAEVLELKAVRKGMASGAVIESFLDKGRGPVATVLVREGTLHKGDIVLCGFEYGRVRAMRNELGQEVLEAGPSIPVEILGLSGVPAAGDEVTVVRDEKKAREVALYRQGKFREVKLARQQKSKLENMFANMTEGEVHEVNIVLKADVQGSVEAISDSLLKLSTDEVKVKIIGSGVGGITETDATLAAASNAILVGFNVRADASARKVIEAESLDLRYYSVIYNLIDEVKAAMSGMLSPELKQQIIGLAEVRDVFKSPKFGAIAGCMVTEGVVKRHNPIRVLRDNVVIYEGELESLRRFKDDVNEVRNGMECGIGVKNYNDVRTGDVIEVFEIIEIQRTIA
T2 sequence (P0A705 whole entry, looked up): as above
T1 sequence (P0A705 whole entry, looked up): as above

For `Nc1nc2c(ncn2[C@@H]2O[C@H](COP(=O)(O)OP(=O)(O)OP(=O)(O)O)[C@@H](O)[C@H]2O)c(=O)[nH]1` [GTP, guanosine triphosphate], the “MST Average” value ([1]; IF2 0.16 µM) was 1029.29 a.u, the “MST Average” value ([1]; IF2 0.31 µM) was 1076.43 a.u and the “MST Average” value ([1]; IF2 0.63 µM) was 1093.32 a.u. For the same molecule, the “MST Average” value ([1]; IF2 1.25 µM) was 1094.97 a.u, the “MST Average” value ([1]; IF2 2.50 µM) was 1077.58 a.u and the “MST Average” value ([1]; IF2 5.00 µM) was 1077.76 a.u. For the same molecule, the “kapp of Bpy-tRNAi accommodation (70S IC formation)” value (70S IC; 30S ICs formed with 0.2 mM nucleotide, mixed with 50S subunits) was 2.4 ± 0.2 s^–1, the “A0, best-fit value” (70S IC; mInfA) was 0.90 and the “A1, best-fit value” (70S IC; mInfA) was 0.11. The “K1, best-fit value” (70S IC; mInfA) was 1.58, the “k2, best-fit value” (70S IC; mInfA) was -0.00193 and the “A0, best-fit value” (70S IC; mMF1) was 0.90. The “A1, best-fit value” (70S IC; mMF1) was 0.10, the “K1, best-fit value” (70S IC; mMF1) was 1.49 and the “k2, best-fit value” (70S IC; mMF1) was -1.6e-5. The “Fluorescence Amplitude Avg” value (70S IC; mRNA mInfA) was 0.108, the “kfast (s-1) Avg” value (70S IC; mRNA mInfA) was 1.58 s⁻¹ and the “Fluorescence Amplitude Avg” value (70S IC; mRNA mMF1) was 0.103. The “kfast (s-1) Avg” value (70S IC; mRNA mMF1) was 1.49 s⁻¹, the “Fluorescence Amplitude Avg” value (70S IC; mRNA mTufA) was 0.145 and the “kfast (s-1) Avg” value (70S IC; mRNA mTufA) was 2.69 s⁻¹. The “A0, best-fit value” (70S IC; mTufA) was 0.86, the “A1, best-fit value” (70S IC; mTufA) was 0.15 and the “K1, best-fit value” (70S IC; mTufA) was 2.69. For the same molecule, the “k2, best-fit value” (70S IC; mTufA) was -0.00034, the “kapp of 70S pre-IC formation (LS)” value ([2]; 30S complexes formed with 0.2 mM nucleotide, mixed with 50S subunits) was 2.9 ± 0.3 s^–1 and the “A0, best-fit value” [2, 3] was 1.08. For the same molecule, the “K1, best-fit value” [2, 3] was 1.97, the “k2, best-fit value” [2, 3] was 0.0017 and 0.00173 and the “A0, best-fit value” [2, 4] was 1.05. The “A1, best-fit value” [2, 4] was -0.035, the “K1, best-fit value” [2, 4] was 1.98 and the “k2, best-fit value” [2, 4] was 0.000317. For the same molecule, the “LS amplitude (a.u.) Avg” value ([2]; mRNA mInfA) was 0.062 a.u, the “LS amplitude (a.u.) Avg” value ([2]; mRNA mMF1) was 0.035 a.u and the “kfast (s-1) Avg” value ([2]; mRNA mMF1) was 1.98 s⁻¹. The “LS amplitude (a.u.) Avg” value ([2]; mRNA mTufA) was 0.083 a.u, the “kfast (s-1) Avg” value ([2]; mRNA mTufA) was 5.20 s⁻¹ and the “A0, best-fit value” [2, 5] was 1.11. The “K1, best-fit value” [2, 5] was 5.20 and the “k2, best-fit value” [2, 5] was 0.000653.

B1: mTufA: TufA mRNA with full-length 5′ UTR, in vitro transcribed, codes for EF-Tu (nucleic acid)
chain: GGUUCUAUCGCCUUUAAAGAAGGCUUUAAGAAAGCGAAACCAGUUCUGCUUGAGCCGAUCAUGAAGGUUGAAGUAGAAACUCCGGAAGAGAACACCGGUGACGUUAUCGGUGACUUGAGCCGUCGUCGUGGUAUGCUCAAAGGUCAGGAAUCUGAAGUUACUGGCGUUAAGAUCCACGCUGAAGUACCGCUGUCUGAAAUGUUCGGAUACGCAACUCAGCUGCGUUCUCUGACCAAAGGUCGUGCAUCAUACACUAUGGAAUUCCUGAAGUAUGAUGAAGCGCCGAGUAACGUUGCUCAGGCCGUAAUUGAAGCCCGUGGUAAAUAAGCCUAAGGGUUAAUACCAAAGUCCCGUGCUCUCUCCUGAAGGGGAGAGCACUAUAGUAAGGAAUAUAGCCGUGUCUAAAGAAAAAUUUGAACG
For B1, the “MST Avg” value (30S-bound IF2 (30S IC); Log [GDP] 0.29) was 1108.89 a.u, the “MST Replicates” value (30S-bound IF2 (30S IC); Log [GDP] 0.29) was 1106.67 a.u. and 1109.49 a.u. and 1110.53 a.u and the “MST Avg” value (30S-bound IF2 (30S IC); Log [GDP] 0.59) was 1108.25 a.u. For the same molecule, the “MST Replicates” value (30S-bound IF2 (30S IC); Log [GDP] 0.59) was 1104.73 a.u. and 1108.81 a.u. and 1111.20 a.u, the “MST Avg” value (30S-bound IF2 (30S IC); Log [GDP] 0.89) was 1106.94 a.u and the “MST Replicates” value (30S-bound IF2 (30S IC); Log [GDP] 0.89) was 1105.25 a.u. and 1107.28 a.u. and 1108.30 a.u. For the same molecule, the “MST Avg” value (30S-bound IF2 (30S IC); Log [GDP] 1.19) was 1104.11 a.u, the “MST Replicates” value (30S-bound IF2 (30S IC); Log [GDP] 1.19) was 1101.85 a.u. and 1104.36 a.u. and 1106.13 a.u and the “MST Avg” value (30S-bound IF2 (30S IC); Log [GDP] 1.49) was 1094.23 a.u. The “MST Replicates” value (30S-bound IF2 (30S IC); Log [GDP] 1.49) was 1091.94 a.u. and 1094.86 a.u. and 1095.88 a.u, the “MST Avg” value (30S-bound IF2 (30S IC); Log [GDP] 1.80) was 1077.93 a.u and the “MST Replicates” value (30S-bound IF2 (30S IC); Log [GDP] 1.80) was 1075.66 a.u. and 1079.00 a.u. and 1079.14 a.u. For the same molecule, the “MST Avg” value (30S-bound IF2 (30S IC); Log [GDP] 2.10) was 1056.10 a.u, the “MST Replicates” value (30S-bound IF2 (30S IC); Log [GDP] 2.10) was 1053.33 a.u. and 1057.00 a.u. and 1057.97 a.u and the “MST Avg” value (30S-bound IF2 (30S IC); Log [GDP] 2.40) was 1017.56 a.u. The “MST Replicates” value (30S-bound IF2 (30S IC); Log [GDP] 2.40) was 1014.74 a.u. and 1018.61 a.u. and 1019.33 a.u, the “MST Avg” value (30S-bound IF2 (30S IC); Log [GDP] 2.70) was 975.78 a.u and the “MST Replicates” value (30S-bound IF2 (30S IC); Log [GDP] 2.70) was 973.53 a.u. and 976.74 a.u. and 977.08 a.u.
